{"source": "BindingDB's records for doi:10.1016/0014-2999(79)90202-4", "about": "(1979)", "data": [{"target": "5-hydroxytryptamine receptor 7 (Rattus norvegicus, UniProt P32305)", "sequence (P32305 whole entry)": "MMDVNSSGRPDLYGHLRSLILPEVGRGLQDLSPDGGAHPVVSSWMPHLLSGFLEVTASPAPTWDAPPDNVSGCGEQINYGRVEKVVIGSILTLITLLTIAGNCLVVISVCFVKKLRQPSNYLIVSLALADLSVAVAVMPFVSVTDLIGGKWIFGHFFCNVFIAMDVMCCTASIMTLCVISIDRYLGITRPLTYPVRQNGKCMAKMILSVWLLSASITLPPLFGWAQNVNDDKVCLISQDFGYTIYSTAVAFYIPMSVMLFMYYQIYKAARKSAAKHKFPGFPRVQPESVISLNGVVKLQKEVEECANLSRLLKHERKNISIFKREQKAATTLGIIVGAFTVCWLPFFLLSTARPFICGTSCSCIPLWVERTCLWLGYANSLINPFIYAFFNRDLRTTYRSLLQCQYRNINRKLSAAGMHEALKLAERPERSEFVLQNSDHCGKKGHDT", "units": {"Ki": "nM"}, "values": [{"smiles": "CC(COc1ccccc1)N(CCCl)Cc1ccccc1", "note": "(stereo unspecified)", "Ki": 0.9}, {"smiles": "O=C(NC1CCN(CCc2c[nH]c3ccccc23)CC1)c1ccccc1", "note": "[N-{1-[2-(1H-Indol-3-yl)-ethyl]-piperidin-4-yl}-benzamide(indoramin)]", "Ki": 5}, {"smiles": "CNC[C@H](O)c1cccc(O)c1", "note": "[PHENYLEPHRINE]", "Ki": 1400}, {"smiles": "c1ccc2c(c1)OCC(CN1CCCCC1)O2", "note": "(stereo unspecified) [Piperoxan]", "Ki": 360}, {"smiles": "c1ccc(CC2=NCCN2)cc1", "note": "[Tolazoline]", "Ki": 2000}, {"smiles": "c1cc2c(c(NC3=NCCN3)c1)CCCC2", "Ki": 290}, {"smiles": "c1ccc2c(CC3=NCCN3)cccc2c1", "note": "[Naphazoline]", "Ki": 43}, {"smiles": "COc1cc2nc(N3CCN(C(=O)c4ccco4)CC3)nc(N)c2cc1OC", "note": "[[3H]-Minipress]", "Ki": 0.1}, {"smiles": "Cc1cc(C(C)(C)C)c(O)c(C)c1CC1=NCCN1", "note": "[SMR000059324]", "Ki": 23}, {"smiles": "COc1cccc(OC)c1OCCNCC1Oc2ccccc2OC1c1ccccc1", "note": "(stereo unspecified) [NSC_185453]", "Ki": 1}, {"smiles": "CNCC(O)c1ccc(O)c(O)c1", "note": "(stereo unspecified) [EPINEPHRINE]", "Ki": 600}]}]}
